According to US20160038474A1, “COMPOSITIONS AND METHODS FOR THE MODULATION OF HEMOGLOBIN (S)” (GLOBAL BLOOD THERAPEUTICS, INC., priority 2013, published 2016):

Experiments:
[1] = Rat pharmacokinetics and blood/plasma partitioning (Example 1); assay type: in vivo, Rats (Sprague-Dawley); conditions: for blood plasma ratio: whole blood and plasma, oral, 10 mg/kg
Experimental: This experiment was established and used in order to assess the pharmacokinetic (PK) properties of the compounds.
Sample collection and data analysis: Rats (Sprague-Dawley, male, 8-12[…] weeks old) were dosed with one of three compounds corresponding to compound 12, compound 22 or compound 23. The rats received oral (10 mg/kg) or intravenous (1 mg/kg) doses of the compound. Rats were fasted overnight before the experiments and provided with food after the 2 hour sampling time point.
Blood samples were collected at different time points. Blood was anti-coagulated by 3.2% TSC (trisodium citrate) and a portion was separated into plasma fraction by centrifugation and removal of blood cells. Plasma and lysed blood samples were anal) zed for drug concentration using LC-MS/MS. PK parameters were calculated by non compartmental analysis of the concentration-time profiles using WinNonLin software (Pharsight, Mountain View, Calif.). Apparent elimination half-life (t1/2) values were calculated as ln(2)/k. Area under the concentration-time curve (AUC) values were estimated using the linear trapezoidal method. AUClast values were calculated from the dosing time to the last measurable concentration. AUCinf values were calculated as the sum of the corresponding AUClast and the ratio of the last detectable concentration divided by k. Plasma clearance (Cl) is calculated from Dose/AUCinf. Volume of distribution at steady state (Vss) is calculated from Mean Residence Timeinf×Clss. Maximum concentration (Cmax) and time to Cmax (Tmax) was recorded as observed. The blood/plasma partitioning ratio was calculated at each experimental time point.

[2] = Mouse intravenous pharmacokinetics and blood/plasma partitioning; assay type: in vivo; conditions: mice; for blood plasma ratio: whole blood and plasma, iv
From the text: The ability of compound 12 to partition preferentially in red blood cells has also been confirmed in mice treated intravenously. […] Analogous to the measurements in rats, the volume of distribution (Vss) was low in mice (0.10). Thus, compound 12 is not expected to broadly distribute into extravascular space in mice.

[3] = target: T1, whole blood from homozygous sickle cell patients, Hb(S) (Homo sapiens, UniProt P68871+P69905, E7V); assay: Reverse Hemox assay (oxygen equilibrium curves), whole blood; assay type: cell-based; conditions: for Whole Blood OEC (delta p50%): [Hb] 1 mM
T1 construct: Oxygen Equilibrium Curves (OEC) of whole blood before and after treatment; from tissue; host or cells: whole blood (or washed red blood cells) of homozygous sickle cell patients
Experimental: (§1) Oxygen Equilibrium Curves (OEC) of whole blood before and after treatment with different concentrations of compounds 12, 22 and 23 were performed as follows using a HEMOX analyzer (TCS Scientific, New Hope, Pa.). Blood samples from homozygous sickle cell patients were obtained though the Hemoglobinopathy Center at Children's Hospital Oakland Research Institute (CHORI) with Institutional Review Board approval. The hematocrit was adjusted to 20% using autologous plasma and the blood samples were incubated for 1 hour at 37° C. in absence or presence of compounds. 100 μl of these samples were added to 5 mL of Hemox butter (30 mM TES, 130 mM NaCl, 5 mM KCl, pH=7.4) at 37° C. and then transferred to the Hemox sample chamber. The samples were saturated with oxygen by flushing with compressed air for 10 minutes. The samples were then flushed with pure nitrogen and the respective absorbances of oxy- and deoxy-Hb are recorded as a function of the solution pO2. The oxygen equilibrium data were then fitted to the Hill Model to obtain values for p50. The deoxygenation curves for both whole blood alone (control) and whole blood in the presence of the compound were collected with the TCS software.
Results: Table 3 below lists the delta p50% values where “+” indicates a delta p50% of between 0 and 29, “++” indicates a delta p50% of between 30 and 50, and “+++” indicates a delta p50% of 50 or greater.
(§2) Reverse hemox assay was performed essentially as described in Example 2, above, using either washed red blood cells or whole blood.

washed red blood cells = assay: Reverse Hemox assay (OEC), washed red blood cells; assay type: cell-based, human
Experimental: as §1, §2
Results: Table 4, below, indicates the percent change in p50 (delta p50%) for each compound tested. In the washed red blood cells (RBCs), 5-HMF, compound 5, and compound 12 (1 mM compound) gave p50 of 20, 9 and 7 mm Hg, respectively, compared to the control red blood cells (delta p50=30 mm Hg). To determine the effects of plasma proteins on compound activity. OECs were measured in whole blood from sickle cell disease patients. 5-HMF, compound 5, compound 9, and compound 12 gave p50 of 27, 18, 11 and 6 mm Hg, respectively, compared to the control blood p50 of 30 mm Hg.

[4] = test system: sickle cell disease patient whole blood (ssRBCs); assay: Viscosity assay, hypoxic sickle cell blood; assay type: cell-based, human; conditions: for Viscosity (ΔcP): [Hb] 1.5 mM, two hours of hypoxia
Experimental: Sickle cell disease patients develop anemia as a means for the circulatory system to compensate for increase in blood viscosity caused by the non-deformable sickle cell red blood cells (ssRBCs). The effects of 5-HMF, compound 5, compound 9, or compound 12 were tested on sickle cell disease patient blood rheology to determine if these compounds decrease the viscosity of ssRBCs that have undergone hypoxia. Using blood from patients with sickle cell disease, whole blood (30% hematocrit, ˜1.5 mM Hb) was incubated with 5-HMF, compound 5, compound 9, or compound 12 during exposure to two hours of hypoxia (2.4% 02). A cone-plate viscometer was used to measure the viscosity at shear rates ranging from 60 s^−1 to 415 s^−1.

red blood cells = assay: Sickling assay under hypoxia; assay type: cell-based; conditions: for Sickling (% sickled): [HbS] ~1 mM (20% HCT), No Cmpd 85
Experimental: For sickling experiments, red blood cells were pre-incubated with compound 12 or 5-HMF, then subjected to hypoxia (pO2 of ˜3 mmHg) in a 37° C. humidified chamber for 0.5 hr and subsequently imaged using a light microscope. The percentage of sickled cells in each image was calculated using CellVigene software.

HbS = HbS (Homo sapiens, UniProt P68871+P69905, E7V); assay: 96-well oxygen dissociation assay (ODA); assay type: biochemical
[5] = ratio of compound 12 to Hb of 1:3

level of compound in blood versus plasma, overall exposure ([1]; dosed orally): 55 fold
relative proportion in blood (as compared to plasma) at peak concentration (Cmax) ([1]; dosed orally): 21 fold
Vd ([1]; male, Sprague-Dawley, in vivo, oral 10 mg/kg or intravenous 1 mg/kg, read-out: Vss): 0.14 L/kg
bioavailability ([1]; male, Sprague-Dawley, in vivo, oral 10 mg/kg, intravenous 1 mg/kg): 68.8%
clearance ([1]; male, Sprague-Dawley, plasma, oral 10 mg/kg or intravenous 1 mg/kg): 0.11 mL/min/kg
blood plasma ratio ([1]; male, Sprague-Dawley, read-out: Blood/plasma (Ratio of exposure AUCINF)): 55
blood plasma ratio ([1]; male, Sprague-Dawley, read-out: Blood/plasma (Ratio of peak concentration)): 21
red blood cell/plasma ratio at the peak concentration ([1]; ratio to 1 into the erythrocytes): 70
Vd ([2]; in vivo, read-out: volume of distribution (Vss)): 0.1 L/kg
blood plasma ratio ([2]; read-out: ratio of blood/plasma at overall exposure): 30
blood plasma ratio ([2]; read-out: ratio of blood/plasma at peak in vivo concentration): 15.4
Reverse Hemox delta p50% (class) ([3]; 1 mM compound, whole blood, hematocrit 20%): +++ (a delta p50% of 50 or greater)
Reverse Hemox delta p50% ([3]; 1 mM compound, whole blood, hematocrit 20%, 1 hour 37° C.): 79.83%
Whole Blood OEC (delta p50%) ([3]; [cmp] 1 mM): 80%
Whole Blood OEC (delta p50%) ([3]; [cmp] 3 mM): >80%
p50 ([3]; whole blood from sickle cell disease patients, control blood p50 30 mm Hg): 6 mm Hg
Hb in ODA (Δoxy state) (HbS; [Hb] 3 μM, [cmp] 1 μM): 16
improvement in oxygen affinity for Hb (HbS; [5]): two-fold
more oxygenated Hb present (HbS; [5]): 16%
SMILES: CC(C)n1nccc1-c1ncccc1COc1cccc(O)c1C=O [Compound 12, 2-hydroxy-6-[[2-(2-propan-2-ylpyrazol-3-yl)pyridin-3-yl]methoxy] benzaldehyde]
Washed RBC OEC (delta p50%) (washed red blood cells; [Hb] 1 mM, [cmp] 1 mM): 76%
p50 (washed red blood cells; washed RBCs, 1 mM compound, control 30 mm Hg): 7 mm Hg
Viscosity (ΔcP) ([4]; [cmp] 1.6 mM): 2.0 cP
Viscosity (ΔcP) ([4]; [cmp] 8 mM): >2.4 cP
blood viscosity ([4]; equimolar compound, hypoxia, 6.33 cP without compound): 4.32 cP
Sickling (% sickled) (red blood cells; [Cmpd] 1 mM): 41%
Sickling (% sickled) (red blood cells; [Cmpd] 2 mM): 33%
Sickling (% sickled) (red blood cells; [Cmpd] 5 mM): 28%
sickling of RBCs (in words) (red blood cells; hypoxia 0.5 hr, 37° C.): prevented sickling of RBCs under hypoxia
